Data set [1] has as its target T1, human progesterone receptor-A [PRA] isoform (Homo sapiens, UniProt P06401).
T1 construct: host or cells: insect SF21 cells (baculovirus)
T1 sequence (P06401 1-769 isoform P06401-2): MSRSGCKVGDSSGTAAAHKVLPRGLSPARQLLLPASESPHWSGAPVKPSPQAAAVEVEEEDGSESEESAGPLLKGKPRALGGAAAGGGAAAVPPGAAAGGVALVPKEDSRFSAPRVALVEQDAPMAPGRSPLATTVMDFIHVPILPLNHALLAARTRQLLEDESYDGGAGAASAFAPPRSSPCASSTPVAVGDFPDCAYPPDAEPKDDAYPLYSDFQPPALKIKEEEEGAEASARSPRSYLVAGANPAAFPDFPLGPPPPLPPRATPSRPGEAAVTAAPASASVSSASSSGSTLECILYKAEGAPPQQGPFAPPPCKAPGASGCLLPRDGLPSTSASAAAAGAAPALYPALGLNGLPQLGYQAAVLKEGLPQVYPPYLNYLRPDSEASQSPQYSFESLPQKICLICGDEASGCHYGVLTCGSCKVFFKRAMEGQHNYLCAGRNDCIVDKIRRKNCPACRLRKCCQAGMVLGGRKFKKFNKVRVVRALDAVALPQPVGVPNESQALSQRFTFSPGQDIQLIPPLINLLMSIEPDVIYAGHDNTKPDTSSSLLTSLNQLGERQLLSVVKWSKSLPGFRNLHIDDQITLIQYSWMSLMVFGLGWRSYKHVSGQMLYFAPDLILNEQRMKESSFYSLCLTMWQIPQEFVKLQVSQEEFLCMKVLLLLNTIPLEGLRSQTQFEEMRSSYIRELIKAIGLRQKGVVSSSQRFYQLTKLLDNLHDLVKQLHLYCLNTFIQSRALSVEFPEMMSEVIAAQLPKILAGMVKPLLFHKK
Put plainly: Radioligand binding with human progesterone receptor cytosol ([3H]-progesterone competition). The settings on record: read-out: Ki (nM) PR.

In data set [2] the target is T2, human glucocorticoid receptor-α [GRX] isoform (Homo sapiens, UniProt P04150).
T2 construct: host or cells: insect SF21 cells (baculovirus)
T2 sequence (P04150 1-777): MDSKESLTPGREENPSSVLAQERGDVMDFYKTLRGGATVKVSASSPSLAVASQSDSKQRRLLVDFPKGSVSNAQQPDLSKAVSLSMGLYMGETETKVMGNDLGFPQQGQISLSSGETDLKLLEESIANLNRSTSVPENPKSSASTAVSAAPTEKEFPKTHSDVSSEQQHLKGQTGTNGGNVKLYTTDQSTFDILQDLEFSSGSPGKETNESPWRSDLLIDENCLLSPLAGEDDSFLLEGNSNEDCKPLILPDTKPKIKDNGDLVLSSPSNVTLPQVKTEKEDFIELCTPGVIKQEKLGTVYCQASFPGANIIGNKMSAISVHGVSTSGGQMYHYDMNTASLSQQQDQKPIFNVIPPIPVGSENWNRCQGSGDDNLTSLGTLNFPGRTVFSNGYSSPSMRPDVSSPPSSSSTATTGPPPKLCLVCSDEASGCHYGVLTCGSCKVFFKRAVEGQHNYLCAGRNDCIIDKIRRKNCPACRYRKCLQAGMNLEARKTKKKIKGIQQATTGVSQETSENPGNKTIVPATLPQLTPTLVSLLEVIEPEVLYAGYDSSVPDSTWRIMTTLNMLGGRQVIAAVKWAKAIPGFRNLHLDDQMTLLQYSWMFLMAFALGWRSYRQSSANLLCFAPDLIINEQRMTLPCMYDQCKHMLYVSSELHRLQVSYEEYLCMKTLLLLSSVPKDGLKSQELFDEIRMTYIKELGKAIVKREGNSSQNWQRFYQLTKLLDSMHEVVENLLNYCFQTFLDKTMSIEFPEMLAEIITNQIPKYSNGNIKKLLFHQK
As to the kind of experiment: Radioligand binding with human glucocorticoid receptor cytosol ([3H]-dexamethasone competition). The settings on record: read-out: Ki (nM) GR.

[3] abbreviates: PRA cytosol expressed in insect SF21 cells, [3H]Prog ~0.8 nM, 4° C. overnight, Ki by Cheng-Prusoff, KL ~4.5 nM.
Setting [4] is: GRX cytosol expressed in insect SF21 cells, [3H]-Dex ~0.9 nM, 4° C. overnight, Ki by Cheng-Prusoff, KL ~[…].

Like-named read-outs stand apart in the source and are kept apart here.

Broadly, the Ki is a dissociation constant, usually derived from enzyme kinetics or from competition with a known ligand. As usually defined, the melting point is the temperature, or range, at which the solid turns liquid. In turn, `COc1cccc2c1-c1ccc3c(c1C(CC=C1CCCCC1)O2)C(C)=CC(C)(C)N3` (centres unmarked) [Example 187, 2,5-Dihydro-10-methoxy-5-(2-cyclohexylidenylethyl)-2,2,4-trimethyl-1H-[1]benzopyrano[3,4-f]quinoline] had a melting point of 130 to 135 °C. Moreover, the Ki in data set [1] (setting [3]) worked out at 3900 nM. Moreover, the inhibition constant (Ki) in data set [2] (setting [4]) was 46 nM.

In turn, `COc1cccc2c1-c1ccc3c(c1C(CNC(=O)OC(C)(C)C)O2)C(C)=CC(C)(C)N3` (centres unmarked) [Example 206] yielded a melting point of 130 to 135 °C. In addition, in data set [1] (setting [3]), the Ki was ≥ 10000 nM. The Ki in data set [2] (setting [4]) was 201 nM.

Turning to `COC(=O)c1cccc2c1-c1ccc3c(c1C(c1ccccc1)O2)C(C)=CC(C)(C)N3` (centres unmarked) [Example 335, Methyl 2,5-Dihydro-5-phenyl-2,2,4-trimethyl-1H-[1]benzopyrano[3,4-f]quinoline-10-carboxylate], the melting point was 150 to 152 °C. For the same compound, the Ki in data set [1] (setting [3]) is ≥ 10000 nM. For the same compound, the Ki in data set [2] (setting [4]) turned out to be 652 nM.

`C=Cc1cccc2oc(=O)c3c4c(ccc3c12)NC(C)(C)C=C4C` [Example 339, 2,5-Dihydro-10-ethenyl-5-oxo-2,2,4-trimethyl-1H-[1]benzopyrano[3,4-f]quinoline] displayed a melting point of 218 to 224 °C. Also, the Ki in data set [1] (setting [3]) is ≥ 10000 nM. The Ki in data set [2] (setting [4]) came out at 112 nM.

Take `C=Cc1cccc2c1-c1ccc3c(c1C(C1(C)CC=CCC1)O2)C(C)=CC(C)(C)N3` (centres unmarked) [Example 341, 2,5-Dihydro-10-ethenyl-5-[1-methyl-3-cyclohexenyl]-2,2,4-trimethyl-1H-[1]benzopyrano[3,4-f]quinoline]: the melting point lay within 198 to 201 °C.

As to “(+/−)2,5-Dihydro-9-hydroxy-10-methoxy-2,2,4-trimethyl-5(S)-(3(S)-1-hydroxymethylcyclopenten-3-yl)-1H-[1]benzopyrano[3,4-f]quinoline [Example 270]”, the results for the inhibition constant (Ki) in data set [1] and in data set [2] were 4760 nM and 0.66 nM, respectively.

Take “O-[3-(2,5-Dihydro-10-methoxy-2,2,4-trimethyl-1H-[1]benzopyrano[3,4-f]quinolin-5-yl)phenyl]ester [Example 102]”: the Ki is ≥ 10000 nM in data set [1] (setting [3]) and 17.7 nM in data set [2] (setting [4]).

These data come from US6506766B1 (Abbott Laboratories, priority 1998, dated 2003).
